In ChEMBL document CHEMBL1141167, “Antitumor activity of new substituted 3-(5-imidazo[2,1-b]thiazolylmethylene)-2-indolinones and study of their effect on the cell cycle” (2005):
“And” between values parts separate entries of the source, which are not always exact repeats. Equal entries are not always repeated.

Experiments:
[1] = tested on: CNS cell; assay: Growth inhibitory concentration dissolved in DMSO against human CNS cell line at 10E-4 M concentration; format: functional
[2] = tested on: Colon cell; assay: Total growth inhibition of human Colon cell line at 10E-4 M concentration; format: functional; design: unit not given here
[3] = tested on: NSCLC; assay: Total growth inhibition of human NSCLC cell line at 10E-4 M concentration; format: functional
[4] = tested on: Breast carcinoma cell; assay: Total growth inhibition of human Breast cell line at 10E-4 M concentration; format: functional
[5] = tested on: Panel NCI-60 (60 carcinoma cell lines); assay: Total growth inhibition of human MG-MID cell line at 10E-4 M concentration; format: functional
[6] = tested on: Ovarian carcinoma cell; assay: Total growth inhibition of human Ovarian cell line at 10E-4 M concentration; format: functional
[7] = tested on: Leukemia cell; assay: Total growth inhibition of human Leukemia cell line at 10E-4 M concentration; format: functional
[8] = tested on: Melanoma cell; assay: Total growth inhibition of human Melanoma cell line at 10E-4 M concentration; format: functional
[9] = tested on: Prostate cell; assay: Total growth inhibition of human Prostate cell line at 10E-4 M concentration; format: functional
[10] = tested on: Prostate cell; assay: Growth inhibitory concentration dissolved in DMSO against human Prostate cell line at 10E-4 M concentration; format: functional
[11] = tested on: Ovarian carcinoma cell; assay: Growth inhibitory concentration dissolved in DMSO against human Ovarian cell line at 10E-4 M concentration; format: functional
[12] = tested on: Melanoma cell; assay: Growth inhibitory concentration dissolved in DMSO against human Melanoma cell line at 10E-4 M concentration; format: functional
[13] = tested on: Colon cell; assay: Growth inhibitory concentration dissolved in DMSO against human Colon cell line at 10E-4 M concentration; format: functional
[14] = tested on: NSCLC; assay: Growth inhibitory concentration dissolved in DMSO against human NSCLC cell line at 10E-4 M concentration; format: functional; design: unit not given here
[15] = tested on: Renal cell; assay: Growth inhibitory concentration dissolved in DMSO against human Renal cell line at 10E-4 M concentration; format: functional; design: unit not given here
[16] = tested on: Breast carcinoma cell; assay: Growth inhibitory concentration dissolved in DMSO against human Breast cell line at 10E-4 M concentration; format: functional
[17] = tested on: Panel NCI-60 (60 carcinoma cell lines); assay: Growth inhibitory concentration dissolved in DMSO against human MG-MID cell line at 10E-4 M concentration; format: functional
[18] = tested on: CNS cell; assay: Cytotoxic effect dissolved in DMSO against CNS cell line at 10E-4 M concentration; format: functional, Homo sapiens
[19] = tested on: Colon cell; assay: Cytotoxic effect dissolved in DMSO against Colon cell line at 10E-4 M concentration; format: functional, Homo sapiens
[20] = tested on: NSCLC; assay: Cytotoxic effect dissolved in DMSO against NSCLC cell line at 10E-4 M concentration; format: functional, Homo sapiens
[21] = tested on: Panel NCI-60 (60 carcinoma cell lines); assay: Cytotoxic effect dissolved in DMSO against MG-MID cell line at 10E-4 M concentration; format: functional, Homo sapiens
[22] = tested on: Leukemia cell; assay: Cytotoxic effect dissolved in DMSO against Leukemia cell line at 10E-4 M concentration; format: functional, Homo sapiens
[23] = tested on: Melanoma cell; assay: Cytotoxic effect dissolved in DMSO against Melanoma cell line at 10E-4 M concentration; format: functional, Homo sapiens
[24] = tested on: HT-29; assay: Percentage of Cells after administration of compound dissolved in DMSO (10e-5 M) towards colon adenocarcinoma cell line HT-29 in G2/M Phase after 24 Hours of Treatment [control = 12.8]; format: functional, Homo sapiens
[25] = tested on: HT-29; assay: Percentage of Cells after administration of compound dissolved in DMSO (10e-6 M) towards colon adenocarcinoma cell line HT-29 in G2/M Phase after 24 Hours of Treatment [control = 12.8]; format: functional, Homo sapiens
[26] = tested on: HT-29; assay: Percentage of Cells after administration of compound dissolved in DMSO (10e-7M) towards colon adenocarcinoma cell line HT-29 in G2/M Phase after 24 Hours of Treatment [control = 12.8]; format: functional, Homo sapiens
[27] = tested on: HT-29; assay: Percentage of Cells after administration of compound dissolved in DMSO (10e-8 M) towards colon adenocarcinoma cell line HT-29 in G2/M Phase after 24 Hours of Treatment [control = 12.8]; format: functional, Homo sapiens
[28] = tested on: HT-29; assay: Percentage of Cells after administration of compound dissolved in DMSO (10e-4 M) towards colon adenocarcinoma cell line HT-29 in G2/M Phase after 24 Hours of Treatment [control = 12.8]; format: functional, Homo sapiens

Cc1cn2c(/C=C3/C(=O)Nc4ccc(O)cc43)c(C)nc2s1
pGI50 (-log GI50, M) [1]: 5.41 | TGI [2]: 4.35 and 4.5 | TGI [3]: 4.36 | TGI [4]: 4.66 | TGI [5]: 4.44 | TGI [6]: 4.09 | TGI [7]: 5.11 | TGI [8]: 4.5 | TGI [9]: 4.42 | pGI50 (negative log molar GI50) [10]: 5.52 | pGI50 (negative log of GI50 in M) [11]: 5.16 | pGI50 (-log molar GI50) [12]: 5.41 | pGI50 (negative log of molar GI50) [13]: 5.78 | GI50 [14]: 5.4 | GI50 [15]: 5.3 | pGI50 (-log GI50, M) [16]: 5.56 | GI50 [17]: 5.48 | LC50 [18]: 4.02 | LC50 [19]: 4.03 | LC50 [20]: 4.02 | LC50 [21]: 4.05 | LC50 [22]: 4.47 | LC50 [23]: 4.08 | Activity [24]: 72.7% | Activity [25]: 13.4% | Activity [26]: 13.6% | Activity [27]: 12.2% | Activity [28]: 75.2%
